Results published in patent US10000496B2, “Compositions useful for treating disorders related to kit and PDGFR” (BLUEPRINT MEDICINES CORPORATION, priority 2015, dated 2018).
pIC50: −log10 of the molar value.

Columns and labels:
[1] = biological target: T1, D816V Kit (Homo sapiens, UniProt P10721, D816V); assay: Kit D816V assay at Km (Caliper electrophoretic mobility shift); conditions: D816V Kit 0.5 nM, 15 uM ATP (Km), 1 uM Srctide, 25 C, 90 minutes; read-out: Biochemical Activity D816V IC50
T1 construct: purchased Carna Bioscience 08-156
T1 sequence (P10721 26-976 D816V): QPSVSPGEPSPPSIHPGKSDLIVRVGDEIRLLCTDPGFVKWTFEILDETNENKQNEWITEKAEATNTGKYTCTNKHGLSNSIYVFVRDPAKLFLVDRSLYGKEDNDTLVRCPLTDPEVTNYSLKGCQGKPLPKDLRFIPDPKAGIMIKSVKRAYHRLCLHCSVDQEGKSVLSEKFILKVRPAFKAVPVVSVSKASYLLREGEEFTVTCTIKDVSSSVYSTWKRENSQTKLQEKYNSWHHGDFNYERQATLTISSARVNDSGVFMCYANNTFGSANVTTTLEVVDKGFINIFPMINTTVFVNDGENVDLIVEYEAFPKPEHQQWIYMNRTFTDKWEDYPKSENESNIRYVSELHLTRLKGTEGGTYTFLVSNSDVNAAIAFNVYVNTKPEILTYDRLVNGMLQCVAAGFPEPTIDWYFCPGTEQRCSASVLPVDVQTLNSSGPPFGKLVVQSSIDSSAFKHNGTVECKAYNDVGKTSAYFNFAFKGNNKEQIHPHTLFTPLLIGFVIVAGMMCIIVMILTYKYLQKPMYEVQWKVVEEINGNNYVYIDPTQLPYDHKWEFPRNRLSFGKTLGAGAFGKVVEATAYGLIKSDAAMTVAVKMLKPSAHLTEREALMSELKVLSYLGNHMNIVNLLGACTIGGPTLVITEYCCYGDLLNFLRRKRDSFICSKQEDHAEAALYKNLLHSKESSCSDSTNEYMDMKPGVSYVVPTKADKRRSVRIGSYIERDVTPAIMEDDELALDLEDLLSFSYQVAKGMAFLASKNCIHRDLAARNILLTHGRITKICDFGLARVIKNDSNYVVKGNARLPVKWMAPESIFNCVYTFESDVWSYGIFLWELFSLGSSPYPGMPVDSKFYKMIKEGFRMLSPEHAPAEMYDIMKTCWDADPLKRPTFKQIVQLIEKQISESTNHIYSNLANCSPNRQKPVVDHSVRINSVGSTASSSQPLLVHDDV
Method: In order to assess the activity of chemical compounds against the relevant kinase of interest, the Caliper LifeSciences electrophoretic mobility shift technology platform is used. Fluorescently labeled substrate peptide is incubated in the presence of kinase and ATP so that a […] proportion of the peptide is phosphorylated. At the end of the reaction, the mix of phosphorylated (product) and non-phosphorylated (substrate) peptides are passed through the microfluidic system of the Caliper EZ Reader 2, under an applied potential difference. The presence of the phosphate group on the product peptide provides a difference in mass and charge between those of the substrate peptide, resulting in a separation of the substrate and product pools in the sample. As the pools pass a LEDS within the instrument, these pools are detected and resolved as separate peaks. The ratio between these peaks therefore reflects the activity of the chemical matter at that concentration in that well, under those conditions.
Kit D816V assay at Km: In each well of a 384-well plate, 0.04 ng/ul (0.5 nM) of D816V Kit (Carna Bioscience 08-156) was incubated in a total of 12.5 ul of buffer (100 mM HEPES pH 7.5, 0.015% Brij 35, 10 mM MgCl2, 1 mM DTT) with 1 uM Srctide (5-FAM-GEEPLYWSFPAKKK-NH2) and 15 uM ATP at 25 C for 90 minutes in the presence or absence of a dosed concentration series of compound (1% DMSO final concentration). The reaction was stopped by the addition of 70 ul of Stop buffer (100 mM HEPES pH 7.5, 0.015% Brij 35, 35 mM EDTA and 0.2% of Coating Reagent 3 (Caliper Lifesciences)). The plate was then read on a Caliper EZReader 2 (protocol settings:—1.9 psi, upstream voltage—700, downstream voltage—3000, post sample sip 35s). Data was normalized to 0% and 100% inhibition controls and the IC50 or EC50 calculated using a 4-parameter fit using GraphPad Prism.

[2] = biological target: T2, Kit D816V in HMC1.2 cells (Homo sapiens, UniProt P10721, D816V/V560G); assay: HMC1.2 autophosphorylation assay (Kit autophosphorylation at tyrosine 719, AlphaLISA); type: cell-based; conditions: HMC1.2 mast cell leukemia cells (Kit V560G and D816V), phospho-Y719 c-Kit, 90 minutes; read-out: Cellular Activity IC50
T2 construct: endogenous in cells; host or cells: HMC1.2
T2 sequence (P10721 26-976 V560G/D816V): as the sequence (P10721 26-976 D816V) above, with V535G counted along it
Method: 10,000 HMC1.2 cells were incubated in 22 ul culture media (phenol-red free IMDM, no serum) in each well of a 384-well plate and serum starved overnight in a tissue culture incubator (5% CO2, 37° C.). A 10-point dose concentration series of compound (25 uM-95.4 pM) were then added to the cells in a volume of 3.1 ul to each well (0.25% DMSO final concentration). After 90 minutes, 6 ul of 5× AlphaLISA Lysis Buffer (Perkin Elmer) supplemented with a protease and phosphatase inhibitor cocktail (Cell Signaling Technologies) was added to each well and shaken at 450 rpm for 15 minutes at 4° C. 10 ul of phospho-Y719 c-Kit and total c-Kit antibodies (15 nM final concentration, Cell Signaling Technologies) and 50 ug/ml AlphaLISA rabbit acceptor beads (Perkin Elmer) were added to each well and shaken at 300 rpm at room temperature for 2 hours. 10 ul of 100 ug/ml streptavidin donor beads (Perkin Elmer) were added to each well, blocked from light with aluminum adhesive and shaken at 300 rpm at room temperature for 2 hours. Fluorescence signal was obtained on Envision (Perkin Elmer) by AlphaScreen 384 well HTS protocol. Data was normalized to 0% and 100% inhibition controls and the IC50 was calculated using Four Parameter Logistic IC50 curve fitting.
This cell line contains Kit mutated at positions V560G and D816V resulting in constitutive activation of the kinase. The following compounds were tested in an assay to measure direct inhibition of Kit D816V kinase activity by assaying Kit autophosphorylation at tyrosine 719 on the Kit protein.

Row | Compound | pIC50 [1] | pIC50 [2]
1 | O=C(Cc1ccc(Cl)cc1)Nc1ccc(-c2ncnn3cc(-c4ccc(F)cc4)cc23)cc1 [Compound 27] | 7.00 to 8.00 | 5.00 to 6.00
2 | C[C@@H](C(=O)Nc1ccc(-c2ncnn3cc(-c4cnn(C)c4)cc23)cc1)c1ccc(Cl)cc1 [Compound 28] | 8.00 to 9.00 | > 8.00
3 | CC(C(=O)Nc1ccc(-c2ncnn3cc(-c4cnn(C)c4)cc23)cc1)c1ccc(Cl)cc1 (centres unmarked) [Compound 29] | 8.00 to 9.00 | > 8.00
4 | C[C@H](C(=O)Nc1ccc(-c2ncnn3cc(-c4cnn(C)c4)cc23)cc1)c1ccc(Cl)cc1 [Compound 30] | 7.00 to 8.00 | 6.00 to 7.00
5 | Cn1cc(-c2cc3c(-c4ccc(NC(=O)C(N)c5ccc(Cl)cc5)cc4)ncnn3c2)cn1 (centres unmarked) [Compound 31, 2-amino-2-(4-chlorophenyl)-N-(4-(6-(1-methyl-1H-pyrazol-4-yl)pyrrolo[1,2-f][1,2,4]triazin-4-yl)phenyl)acetamide] | 8.00 to 9.00 | > 8.00
6 | Cn1cc(-c2cc3c(-c4ccc(NC(=O)[C@H](O)c5ccc(Cl)cc5)cc4)ncnn3c2)cn1 [Compound 32, 2-(4-chlorophenyl)-2-hydroxy-N-(4-(6-(1-methyl-1H-pyrazol-4-yl)pyrrolo[1,2-f][1,2,4]triazin-4-yl)phenyl)acetamide] | > 9.00 | > 8.00
7 | Cn1cc(-c2cc3c(-c4ccc(NC(=O)C(O)c5ccc(Cl)cc5)cc4)ncnn3c2)cn1 (centres unmarked) [Compound 33, 2-(4-chlorophenyl)-2-hydroxy-N-(4-(6-(1-methyl-1H-pyrazol-4-yl)pyrrolo[1,2-f][1,2,4]triazin-4-yl)phenyl)acetamide] | 8.00 to 9.00 | > 8.00
8 | Cn1cc(-c2cc3c(-c4ccc(NC(=O)[C@@H](O)c5ccc(Cl)cc5)cc4)ncnn3c2)cn1 [Compound 34, 2-(4-chlorophenyl)-2-hydroxy-N-(4-(6-(1-methyl-1H-pyrazol-4-yl)pyrrolo[1,2-f][1,2,4]triazin-4-yl)phenyl)acetamide] | 8.00 to 9.00 | 7.00 to 8.00
9 | COc1ccc(S(=O)(=O)Nc2ccc(-c3ncnn4cc(-c5cnn(C)c5)cc34)cc2)cc1 [Compound 35] | 8.00 to 9.00 | 6.00 to 7.00
10 | Cn1cc(-c2cc3c(-c4ccc(NS(=O)(=O)c5ccc(Cl)cc5)cc4)ncnn3c2)cn1 [Compound 36] | > 9.00 | 7.00 to 8.00
11 | Cn1cc(-c2cc3c(-c4ccc(NS(=O)(=O)c5cccc(Cl)c5)cc4)ncnn3c2)cn1 [Compound 37] | 7.00 to 8.00 | 6.00 to 7.00
12 | Cn1cc(-c2cc3c(-c4ccc(NS(=O)(=O)c5ccccc5Cl)cc4)ncnn3c2)cn1 [Compound 38] | 7.00 to 8.00 | 5.00 to 6.00
13 | Cn1cc(-c2cc3c(-c4ccc(NC(=O)C5(c6ccc(Cl)cc6)CC5)cc4)ncnn3c2)cn1 [Compound 39] | 7.00 to 8.00 | 6.00 to 7.00
14 | Cn1cc(-c2cc3c(-c4ccc(NS(=O)(=O)Cc5ccc(C#N)cc5)cc4)ncnn3c2)cn1 [Compound 40] | > 9.00 | 7.00 to 8.00
15 | Cn1cc(-c2cc3c(-c4ccc(NC(=O)C(C)(C)c5ccc(Cl)cc5)cc4)ncnn3c2)cn1 [Compound 41, 2-(4-chlorophenyl)-2-methyl-N-(4-(6-(1-methyl-1H-pyrazol-4-yl)pyrrolo[1,2-f][1,2,4]triazin-4-yl)phenyl)propanamide] | > 9.00 | 7.00 to 8.00
16 | CC[C@@H](C(=O)Nc1ccc(-c2ncnn3cc(-c4cnn(C)c4)cc23)cc1)c1ccc(Cl)cc1 [Compound 42] | 8.00 to 9.00 | > 8.00
17 | CCC(C(=O)Nc1ccc(-c2ncnn3cc(-c4cnn(C)c4)cc23)cc1)c1ccc(Cl)cc1 (centres unmarked) [Compound 43] | 8.00 to 9.00 | 7.00 to 8.00
18 | CC[C@H](C(=O)Nc1ccc(-c2ncnn3cc(-c4cnn(C)c4)cc23)cc1)c1ccc(Cl)cc1 [Compound 44] | 7.00 to 8.00 | 6.00 to 7.00
19 | Cn1cc(-c2cc3c(-c4ccc(NC(=O)[C@@](C)(N)c5ccc(Cl)cc5)cc4)ncnn3c2)cn1 [Compound 45, 2-amino-2-(4-chlorophenyl)-N-(4-(6-(1-methyl-1H-pyrazol-4-yl)pyrrolo[1,2-f][1,2,4]triazin-4-yl)phenyl)propanamide] | 8.00 to 9.00 | > 8.00
20 | Cn1cc(-c2cc3c(-c4ccc(NC(=O)[C@](C)(N)c5ccc(Cl)cc5)cc4)ncnn3c2)cn1 [Compound 46, 2-amino-2-(4-chlorophenyl)-N-(4-(6-(1-methyl-1H-pyrazol-4-yl)pyrrolo[1,2-f][1,2,4]triazin-4-yl)phenyl)propanamide] | 8.00 to 9.00 | > 8.00
21 | Cn1cc(-c2cc3c(-c4ccc(NC(=O)C(C)(N)c5ccc(Cl)cc5)cc4)ncnn3c2)cn1 (centres unmarked) [Compound 47, 2-amino-2-(4-chlorophenyl)-N-(4-(6-(1-methyl-1H-pyrazol-4-yl)pyrrolo[1,2-f][1,2,4]triazin-4-yl)phenyl)propanamide] | 8.00 to 9.00 | > 8.00

Further lines, results first:

Row | pIC50 [1] | pIC50 [2] | Compound
22 | > 9.00 | > 8.00 | CO[C@@H](C(=O)Nc1ccc(-c2ncnn3cc(-c4cnn(C)c4)cc23)cc1)c1ccc(Cl)cc1 [Compound 48]
23 | 8.00 to 9.00 | > 8.00 | Cn1cc(-c2cc3c(-c4ccc(NC(=O)[C@@](C)(O)c5ccc(Cl)cc5)cc4)ncnn3c2)cn1 [Compound 49, 2-(4-chlorophenyl)-2-hydroxy-N-(4-(6-(1-methyl-1H-pyrazol-4-yl)pyrrolo[1,2-f][1,2,4]triazin-4-yl)phenyl)propanamide]
24 | 7.00 to 8.00 | 6.00 to 7.00 | Cn1cc(-c2cc3c(-c4ccc(NC(=O)[C@](C)(O)c5ccc(Cl)cc5)cc4)ncnn3c2)cn1 [Compound 50, 2-(4-chlorophenyl)-2-hydroxy-N-(4-(6-(1-methyl-1H-pyrazol-4-yl)pyrrolo[1,2-f][1,2,4]triazin-4-yl)phenyl)propanamide]
25 | 8.00 to 9.00 | 7.00 to 8.00 | Cn1cc(-c2cc3c(-c4ccc(NC(=O)C(C)(O)c5ccc(Cl)cc5)cc4)ncnn3c2)cn1 (centres unmarked) [Compound 51]
26 | 8.00 to 9.00 | 7.00 to 8.00 | COC(C(=O)Nc1ccc(-c2ncnn3cc(-c4cnn(C)c4)cc23)cc1)c1ccc(Cl)cc1 (centres unmarked) [Compound 52]
27 | 7.00 to 8.00 | 6.00 to 7.00 | CO[C@H](C(=O)Nc1ccc(-c2ncnn3cc(-c4cnn(C)c4)cc23)cc1)c1ccc(Cl)cc1 [Compound 53]
28 | 8.00 to 9.00 | > 8.00 | Cn1cc(-c2cc3c(-c4ccc(NC(=O)Cc5ccc(Cl)cc5Cl)cc4)ncnn3c2)cn1 [Compound 54]
29 | < 7.00 | 5.00 to 6.00 | O=S(=O)(Nc1ccc(-c2ncnn3cc(-c4ccc(F)cc4)cc23)cc1)c1ccc(Cl)cc1 [Compound 55]
30 | 8.00 to 9.00 | 6.00 to 7.00 | Cn1cc(-c2cc3c(-c4ccc(NS(=O)(=O)c5ccc(Cl)cc5)cc4F)ncnn3c2)cn1 [Compound 56]
31 | 7.00 to 8.00 | 5.00 to 6.00 | Cn1cc(-c2cc3c(-c4ccc(NS(=O)(=O)c5ccc(Cl)cc5)c(F)c4)ncnn3c2)cn1 [Compound 57]
32 | 7.00 to 8.00 | 7.00 to 8.00 | CC(C)C(C(=O)Nc1ccc(-c2ncnn3cc(-c4cnn(C)c4)cc23)cc1)c1ccc(Cl)cc1 (centres unmarked) [Compound 58]
33 | 8.00 to 9.00 | 7.00 to 8.00 | CN(C)C(C(=O)Nc1ccc(-c2ncnn3cc(-c4cnn(C)c4)cc23)cc1)c1ccc(Cl)cc1 (centres unmarked) [Compound 59, 2-(4-chlorophenyl)-2-(dimethylamino)-N-(4-(6-(1-methyl-1H-pyrazol-4-yl)pyrrolo[1,2-f][1,2,4]triazin-4-yl)phenyl)acetamide]
34 | 8.00 to 9.00 | 7.00 to 8.00 | CC(C)(O)Cn1cc(-c2cc3c(-c4ccc(NC(=O)Cc5ccc(Cl)cc5)cc4)ncnn3c2)cn1 [Compound 60]
